Results published in patent US20240228536A1, “PEPTIDES FOR USE IN SKIN AND HAIR PIGMENTATION” (Follicum AB, priority 2020, published 2024).

Assays:
Assay type in all cases: cell-based, human
Melanoderm SEs = test: Warthin-Starry silver staining of melanin granules in Melanoderms; settings: in formulation B at all three concentrations (0.4%, 1%, 2%), 7 days, compared to formulation only
Procedure: Tissue from each Melanoderm of Example 13 was carefully cut from inserts using a sterile scalpel blade (no. 11) and cut in half. One half was submerged overnight at −20° C. in RNAlater solution (Qiagen, UK) for RNA stabilization. The following day excess RNAlater solution was removed, and samples stored at −80° C. until RNA extracted for qPCR. The second half of each tissue was fixed overnight in 10% neutral buffered formalin then processed for wax embedding, sectioning, and Warthin-Starry staining.
All reagents used were of research grade quality and obtained from Sigma, UK. For silver staining high purity photo-grade (>99%) Silver nitrate was used. All reagents were prepared in acidulated (citrulated) distilled water (approx. 1 ml/L of 1% Citric acid was added to distilled water to change the pH to 3.4). Other equipment used were two water baths pre-set at 43° C. and 54° C., plastic staining tubs and slide racks for incubating slides, magnetic stirrers, and calibrated pH meter.
Melanin in tissue sections was stained using the modified Warthin-Starry staining method (Warthin, A. et al., Am. J. Syph. (1920) 4:97-103; Warkel, R. et al., Am. J. Clin. Path. (1980) 73 June (6): 812-5.). Briefly, 7 μm tissue sections were cut from wax blocks and floated onto charged slides (Leica Xtra clipped corner glass slides). […]

[1] = system: Pigmented skin equivalents (SEs), Melanoderms Mel-300-A (donor) and Mel-300-C-2 (donor); test: Skin equivalent culture, photographic assessment of pigmentation
Procedure: The skin equivalent surface area was 63.6 mm^2. Other equipment used included SMZ1000 Stereo Microscope (Nikon); UC30 Microscope Camera (Olympus); Phosphate-Buffered Saline (PBS); 6-well Tissue Culture Plates (Sarstedt); Image J software (https://imagej.nih.gov); Paintshop Photo Pro Software (Corel). The Melanoderms were prepared by carefully removing the agarose with sterile forceps and placing them in pre-warmed culture medium (37° C.) for an hour prior to treatment. The Melanoderms were then topically treated (without rubbing) with 25 μl of the various peptides, dissolved in dH2O at 10 mg/ml. […] The SEs were examined and removed from culture when skin darkening became visible. The pigmentation of the Melanoderms was macroscopically assessed by capturing high-resolution images using the Olympus microscope camera. […] They were then placed into a 6-well plate containing 1 ml PBS/well and images captured at ×8 magnification. The images were then processed using Image J & Paintshop Photo Pro software, to determine a quantifiable pixel area, which equated to the level of pigmentation present in the skin equivalent. The image brightness was normalised and the image gray-scaled using Paintshop Photo Pro, then Image J was used to threshold the image. The pigmentation was quantified by assessing total pixel area of pigmentation coverage in a fixed sample area. An ANOVA test (Dunnett's post-test) was used for the statistical analysis. Three different experiments were conducted. In the first, skin equivalents from both donors were included, and in experiment 2 and 3, only the […] donor was included. The SE of the […] donor from the first experiment received 5 treatments of 25 μl of peptide solution at 10 mg/ml; starting on the first day following receipt then on days 3, 5, 9 and 12. Peptides 1 (SEQ ID NO: 2), 3 (SEQ ID NO: 3) and 4 (SEQ ID NO: 4) were tested. The images were taken on Day 14. In experiment 2, peptide 3 and 4 were selected for testing to see if it had any efficacy in reducing melanin content or the distribution of melanin throughout the SE. This time, 5 SEs were used per treatment to improve statistical robustness. The experiment was continued for 20 days with treatments on days 0, 3, 7 and 12 and medium changes every other day. In experiment 3 a more highly pigmented SE ([…] donor melanocytes) was used and with an increased sample size with n=7 per treatment. […] Treatment was repeated on days 5, 9, 12 and 15 with medium changed every other day.

skin equivalents = test: Total melanin assay
Procedure: The skin equivalents used in this study was from the same donors as in Example 2. The determination of the total melanin content of the skin equivalent was determined using a total melanin assay.
The total melanin content of the SE was calculated by dissolving the SE in Soluene and reading the absorbance against a standard curve. The SEs were removed from culture on day 20 and washed with PBS. They were then transferred to a glass centrifuge tube and 500 μl Soluene added. The tubes were then covered with […]®, gently vortexed and placed on the Thermomixer at 50° C. for 1 hour. The tubes were then gently vortexed and 150 μl of the sample and synthetic melanin standards pipetted in triplicate into a glass 96 well plate. The absorbance was then measured at 490 nm on a Spectrophotometer. Results are presented in μg/ml against a standard curve. The change of melanin content is expressed as a percentage change versus vehicle control samples. An ANOVA (with Dunnett's post-test) was used for the statistical analysis.
Three experiments were conducted, and the same donors were used as in Example 2. The sample sizes were as follows: experiment 1 n=2, experiment 2 n=4 and experiment 3 n=7. Peptides 1 (SEQ ID NO: 2), 3 (SEQ ID NO: 3) and 4 (SEQ ID NO: 4) were tested.

[2] = experiment 1, donor, 10 mg/ml, 20 days in culture
[3] = experiment 1, donor, 5 topical treatments of 25 μl at 10 mg/ml in dH2O, images Day 14
[4] = experiment 3, more highly pigmented SE (donor), 10 mg/ml, n=7
[5] = experiments 1 and 3, 10 mg/ml topical, day 20

With “Asn-Ala-Ala-Met (NAAM; (1)..(4) Peptide 4)” the “melanin in epidermal layers (Warthin-Starry)” value (Melanoderm SEs) was “greater increase in melanin in all layers of the epidermis”, the “pigmentation of skin equivalents (photographic assessment) compared to vehicle control” value (“pigmentation … compared to vehicle control” for short) [1, 2] was “somewhat darker and mottled appearance” and the “pigmentation … compared to vehicle control” value [1, 3] was “more pigmented compared to the vehicle”. For the same substance, the “pigmentation … compared to vehicle control” value ([1]; experiment 2, donor, 10 mg/ml, 20 days, n=5) was “increase in pigmentation compared to the vehicle control samples”, the “pigmentation … compared to vehicle control” value [1, 4] was “increase in pigmentation” and the “total melanin content of skin equivalents vs vehicle control” value (shortened to “total melanin content … vs vehicle control”) (skin equivalents; experiment 2, 10 mg/ml topical, day 20, n=4) was “significant increase in melanin content”. The “total melanin content … vs vehicle control” value (skin equivalents; [5]) was “increase in melanin content”.
With “Asn-Ala-His-Met (NAHM; (1)..(4) Peptide 1)” the “melanin in epidermal layers (Warthin-Starry)” value (Melanoderm SEs) was “modest increase in melanin in the basal and stratum spinosum layers”, the “pigmentation … compared to vehicle control” value [1, 2] was “somewhat darker and mottled appearance” and the “pigmentation … compared to vehicle control” value [1, 3] was “more pigmented compared to the vehicle”. The “pigmentation … compared to vehicle control” value [1, 4] was “increase in pigmentation” and the “total melanin content … vs vehicle control” value (skin equivalents; [5]) was “increase in melanin content”.
